SMILES	melting point [°C]
C#Cc1ccc(-n2c(/C=C/c3cc(OC)cc(OC)c3)nc3ncccc3c2=O)cc1 [4m, (E)-2-(3,5-Dimethoxystyryl)-3-(4-ethynylphenyl)pyrido[2,3-d]pyrimidin-4(3H)-one]	123 to 124
C#Cc1ccc(-n2c(/C=C/c3c(OC)cc(OC)cc3OC)nc3ncccc3c2=O)cc1 [4r, (E)-3-(4-Ethynylphenyl)-2-(2,4,6-trimethoxystyryl)pyrido[2,3-d]pyrimidin-4(3H)-one]	124 to 125
C#Cc1ccc(-n2c(/C=C/c3cccc(OC(F)(F)F)c3)nc3ncccc3c2=O)cc1 [4d, (E)-3-(4-Ethynylphenyl)-2-(3-(trifluoromethoxy)styryl)pyrido[2,3-d]pyrimidin-4(3H)-one]	128 to 129
C#Cc1ccc(-n2c(/C=C/c3c[nH]c4ccc(OC)cc34)nc3ncccc3c2=O)cc1 [4v, (E)-3-(4-ethynylphenyl)-2-(2-(5-methoxy-1H-indol-3-yl)vinyl)pyrido[2,3-d]pyrimidin-4(3H)-one]	114 to 115
C#Cc1ccc(-n2c(/C=C/c3ccc(OC)c(F)c3)nc3ncccc3c2=O)cc1 [4h, (E)-3-(4-Ethynylphenyl)-2-(3-fluoro-4-methoxystyryl)pyrido[2,3-d]pyrimidin-4(3H)-one]	124 to 125
C#Cc1ccc(-n2c(/C=C/c3cccc4c3OCO4)nc3ncccc3c2=O)cc1 [4o, (E)-2-(2-(benzo[d][1,3]dioxol-4-yl)vinyl)-3-(4-ethynylphenyl)pyrido[2,3-d]pyrimidin-4(3H)-one]	125 to 126
C#Cc1ccc(-n2c(/C=C/c3ccc(F)cc3)nc3ncccc3c2=O)cc1 [4a, (E)-3-(4-Ethynylphenyl)-2-(4-fluorostyryl)pyrido[2,3-d]pyrimidin-4(3H)-one]	123 to 124
C#Cc1ccc(-n2c(/C=C/c3ccc4[nH]ccc4c3)nc3ncccc3c2=O)cc1 [4u, (E)-2-(2-(1H-Indol-5-yl)vinyl)-3-(4-ethynylphenyl)pyrido[2,3-d]pyrimidin-4(3H)-one]	123 to 124
C#Cc1ccc(-n2c(/C=C/c3ccc(F)c(F)c3)nc3ncccc3c2=O)cc1 [4f, (E)-2-(3,4-Difluorostyryl)-3-(4-ethynylphenyl)pyrido[2,3-d]pyrimidin-4(3H)-one]	123 to 124
C#Cc1ccc(-n2c(/C=C/c3ccc(O)c(OC)c3)nc3ncccc3c2=O)cc1 [4k, (E)-3-(4-Ethynylphenyl)-2-(4-hydroxy-3-methoxystyryl)pyrido[2,3-d]pyrimidin-4(3H)-one]	123 to 124
C#Cc1ccc(-n2c(/C=C/c3cc(OC)ccc3OC)nc3ncccc3c2=O)cc1 [4n, (E)-2-(2,5-Dimethoxystyryl)-3-(4-ethynylphenyl)pyrido[2,3-d]pyrimidin-4(3H)-one]	127 to 128
